Assay results published in a compilation of properties of binary mixtures (doi:10.1016/j.molliq.2017.08.014).

Test: xn = mol fraction of the nth substance listed
Conditions: 101 kPa

CCCCn1cc[n+](C)c1.[Cl][Fe-]([Cl])([Cl])[Cl] + CCOC(C)=O
viscosity [mPa·s]
Conditions	x1 = 0.1002	x1 = 0.1999	x1 = 0.3007	x1 = 0.3999	x1 = 0.5	x1 = 0.6001	x1 = 0.7	x1 = 0.7973	x1 = 0.9	x1 = 1
293.15 K	1.17	2.37	4.32	7.33	11.15	–	22.98	30.8	41.3	56.6
298.15 K	1.09	2.19	3.92	6.53	9.78	14.09	19.72	–	–	46
303.15 K	1.02	2.01	3.56	5.84	8.64	–	16.92	–	28.7	37.9
308.15 K	0.97	–	3.26	–	7.69	–	14.65	–	24.4	–
313.15 K	0.91	–	2.99	4.76	6.88	9.63	12.81	–	21.04	27
318.15 K	0.86	1.66	–	–	6.19	8.65	11.32	14.58	–	23.24
323.15 K	0.82	1.57	2.56	3.98	5.63	7.79	10.08	12.88	16.08	20.16

CCOC(C)=O + CCCCn1cc[n+](C)c1.Cl[Fe-](Cl)(Cl)Cl
x2 = 0
Conditions	viscosity [mPa·s]
293.15 K	0.46
298.15 K	0.43
303.15 K	0.41
308.15 K	0.39
313.15 K	0.37
318.15 K	0.35
323.15 K	0.33
